Measured values: patent US20170209434A1, “PROTEIN PHOSPHATASE 2A INHIBITORS FOR TREATING MYELODYSPLASTIC SYNDROMES” (priority 2014, published 2017)
pIC50: −log10 of the molar value.

How the values were obtained:
del(5q) MDS = assay: Additional studies of efficacy in del(5q) MDS (Example 3); assay type: in vivo; settings: subject afflicted with del(5q) MDS
Method: (§1) Additional studies, similar to the aforementioned Phase I design, are conducted to evaluate the efficacy of LB-100, alone or in combination with lenalidomide, in patients with del(5q) MDS or non-del(5q) MDS.
An amount of LB-100 is administered to a subject afflicted with del(5q) MDS. […] An amount of LB-100 in combination with lenalidomide is administered to a subject afflicted with del(5q) MDS.

Namalwa cells [1] = assay: Cell cycle analysis of Namalwa cells treated with LB-100; assay type: cell-based; settings: for G1 / G2/M / S / Percent G1: 24 hours
Method: FIG. 1 is a bar graph showing percent of Namalwa cells in G1 arrest 24 hours after treatment with 0.1 μM, 1.0 μM or 10 μM LB-100 dissolved in DMSO (grey) or MSG (black) compared to control and vehicle.
FIG. 2 is a bar graph showing percent of Namalwa cells in G1 arrest 24 hours after treatment with 0.1 μM, 1.0 μM or 10 μM LB-100 compared to control.

[2] = test system: MDS that is resistant to lenalidomide; assay: Additional studies of efficacy in lenalidomide-resistant MDS (Example 3); assay type: in vivo
Method: as §1

protein phosphatase 2A = protein phosphatase 2A (Homo sapiens, UniProt P67775); settings: cited from earlier work
Sequence of protein phosphatase 2A (P67775 whole entry): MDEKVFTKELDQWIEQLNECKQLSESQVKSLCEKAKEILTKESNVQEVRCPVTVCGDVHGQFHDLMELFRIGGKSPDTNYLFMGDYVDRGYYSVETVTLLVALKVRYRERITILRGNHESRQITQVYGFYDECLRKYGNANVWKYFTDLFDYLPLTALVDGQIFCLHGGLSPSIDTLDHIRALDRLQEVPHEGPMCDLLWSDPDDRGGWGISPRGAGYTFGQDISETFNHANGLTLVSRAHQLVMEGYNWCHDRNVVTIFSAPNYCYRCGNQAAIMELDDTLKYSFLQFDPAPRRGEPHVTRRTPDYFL

non-del(5q) MDS = assay: Additional studies of efficacy in non-del(5q) MDS (Example 3); assay type: in vivo; settings: subject afflicted with non-del(5q) MDS
Method: as §1
An amount of LB-100 is administered to a subject afflicted with non-del(5q) MDS. […] An amount of LB-100 in combination with lenalidomide is administered to a subject afflicted with non-del(5q) MDS.

HL60 cells = assay: MTT assay, HL60 cell proliferation; assay type: cell-based; settings: 72 hours, significant difference at 1 μM
Method: (§2) FIG. 7A is a graph showing proliferation of HL60 cells 72 hours after treatment with 0.001 μM, 0.01 μM, 0.1 μM, 1.0 μM, 10 μM, or 100 μM LB-100 (grey) or 0.001 μM, 0.01 μM, 0.1 μM, 1.0 μM, 10 μM, or 100 μM lenalidomide (black), compared to control or vehicle. FIGS. 7B to 7C are graphs showing proliferation of Namalwa cells 72 hours after treatment with 0.001 μM, 0.01 μM, 0.1 μM, 1.0 μM, 10 μM, or 100 μM LB-100 (♦), 0.001 μM, 0.01 μM, 0.1 μM, 1.0 μM, 10 μM, or 100 μM lenalidomide (▪), or 0.001 μM, 0.01 μM, 0.1 μM, 1.0 μM, 10 μM, or 100 μM cantharidin (▴), compared to control or vehicle.
(§3) HL60 cells and U937 cells were compared (FIGS. 8A and 8B).

del(5q) patient BM MNCs = assay: Apoptosis of del(5q) patient BM MNCs; assay type: cell-based
Method: FIG. 6 is a bar graph showing percentage of primary BM MNCs from a Del(5q) patient undergoing apoptosis after treatment with 0.1 μM, 1.0 μM, or 10 μM lenalidomide (grey) or 0.1 μM, 1.0 μM, or 10 μM LB-100 (black), compared to a control.

[3] = test system: Non-del(5q) patient BM MNCs; assay: Apoptosis of non-del(5q) patient BM MNCs; assay type: cell-based; settings: FIG. 5, 0.1-10 μM
Namalwa cells [4] = assay: MTT assay, Namalwa cell proliferation; assay type: cell-based; settings: 72 hours
Method: as §2, §3

Namalwa cells [5] = assay: Apoptosis of Namalwa cells; assay type: cell-based; settings: for Percent Apoptosis: dissolved in MSG
Method: FIG. 3 is a bar graph showing percentage of Namalwa cells undergoing apoptosis after treatment with 0.1 μM, 1.0 μM or 10 μM LB-100 dissolved in DMSO (grey) or MSG (black) compared to control and vehicle.
FIGS. 4A to 4D are a series of flow cytometry plots showing percentage of Namalwa cells undergoing apoptosis after treatment with control (FIG. 4A), 0.1 μM (FIG. 4B), 1.0 μM (FIG. 4C), or 10 μM (FIG. 4D) LB-100.

non-del (5q) MDS = settings: cited from earlier work
del(5q) MDS patients = settings: cited from earlier work
protein phosphatase 1 = settings: cited from earlier work

In the case of `CN1CCN(C(=O)C2C(C(=O)O)[C@H]3CC[C@@H]2O3)CC1` (stereo partly drawn) [LB100], the “Efficacy in treating del(5q) MDS (in words)” value (del(5q) MDS) was “effective to treat”, the G1 (Namalwa cells [1]; 0.1 μM, dissolved in DMSO) was 17.73% and the G2/M (Namalwa cells [1]; 0.1 μM, dissolved in DMSO) was 16.51. The S (Namalwa cells [1]; 0.1 μM, dissolved in DMSO) was 65.76, the G1 (Namalwa cells [1]; 0.1 uM, dissolved in MSG) was 18.69% and the G2/M (Namalwa cells [1]; 0.1 uM, dissolved in MSG) was 17.93. For the same molecule, the S (Namalwa cells [1]; 0.1 uM, dissolved in MSG) was 63.37, the G1 (Namalwa cells [1]; 1.0 μM, dissolved in DMSO) was 18.38% and the G2/M (Namalwa cells [1]; 1.0 μM, dissolved in DMSO) was 18.22. For the same molecule, the S (Namalwa cells [1]; 1.0 μM, dissolved in DMSO) was 63.41, the G1 (Namalwa cells [1]; 1.0 uM, dissolved in MSG) was 41.48% and the G2/M (Namalwa cells [1]; 1.0 uM, dissolved in MSG) was 6.96. For the same molecule, the S (Namalwa cells [1]; 1.0 uM, dissolved in MSG) was 51.56, the G1 (Namalwa cells [1]; 10 μM, dissolved in DMSO) was 28.97% and the G2/M (Namalwa cells [1]; 10 μM, dissolved in DMSO) was 8.9. The S (Namalwa cells [1]; 10 μM, dissolved in DMSO) was 62.13, the G1 (Namalwa cells [1]; 10 uM, dissolved in MSG) was 46.34% and the G2/M (Namalwa cells [1]; 10 uM, dissolved in MSG) was 8.5. For the same molecule, the S (Namalwa cells [1]; 10 uM, dissolved in MSG) was 45.15, the G2/M (Namalwa cells [1]; Table 2, 0.1 μM) was 12.06% and the “Percent G1” value (Namalwa cells [1]; Table 2, 0.1 μM) was 24.01%. For the same molecule, the S (Namalwa cells [1]; Table 2, 0.1 μM) was 63.93%, the G2/M (Namalwa cells [1]; Table 2, 1.0 μM) was 20.8% and the “Percent G1” value (Namalwa cells [1]; Table 2, 1.0 μM) was 31.35%. The S (Namalwa cells [1]; Table 2, 1.0 μM) was 47.85%, the G2/M (Namalwa cells [1]; Table 2, 10 μM) was 6.13% and the “Percent G1” value (Namalwa cells [1]; Table 2, 10 μM) was 51.18%. For the same molecule, the S (Namalwa cells [1]; Table 2, 10 μM) was 42.69%, the “G1 arrest, dose dependence (in words)” value (Namalwa cells [1]; Table 2 and FIG. 2, 0.1-10 μM) was “led to G1 arrest in a dose-dependent fashion” and the “G1 arrest (in words)” value (Namalwa cells [1]; at 10 μM in DMSO) was “led to G1 arrest”. The “G1 arrest (in words)” value (Namalwa cells [1]; at 1 and 10 μM in MSG) was “led to G1 arrest”, the “Efficacy in treating MDS resistant to lenalidomide (in words)” value [2] was “effective to treat” and the “PP2A inhibition (in words)” value (protein phosphatase 2A) was “greater potency than lenalidomide”. For the same molecule, the “Efficacy in treating non-del(5q) MDS (in words)” value (non-del(5q) MDS) was “effective to treat”, the “Proliferation in comparison to treatment with lenalidomide (in words)” value (HL60 cells) was “significant decreased proliferation” and the “Apoptosis, dose dependence (in words)” value (del(5q) patient BM MNCs; FIG. 6, 0.1-10 μM) was “induced apoptosis in a dose dependent fashion”. For the same molecule, the “Apoptosis (in words)” value (del(5q) patient BM MNCs; at 1 μM) was “mild increase in apoptosis”, the “Cytotoxicity compared with lenalidomide (in words)” value (del(5q) patient BM MNCs; at 10 μM) was “more cytotoxic than lenalidomide” and the “Apoptosis (in words)” value [3] was “did not lead to apoptosis”. For the same molecule, the “Proliferation in comparison to control (in words)” value (Namalwa cells [4]) was “significant decrease in proliferation”, the “Percent Apoptosis” value (Namalwa cells [5]; 0.1 μM) was 6.18% and the “Percent Apoptosis” value (Namalwa cells [5]; 1.0 μM) was 6.5%. The “Percent Apoptosis” value (Namalwa cells [5]; 10 μM) was 55.8% and the “Apoptosis (in words)” value (Namalwa cells [5]; at 10 μM when dissolved in MSG) was “led to apoptosis”.
For `Nc1cccc2c1CN(C1CCC(=O)NC1=O)C2=O` (stereo not drawn) [Lenalidomide, lenalidomide], the “transfusion independence (TI), % of patients” value (non-del (5q) MDS) is listed as 26%, the “transfusion independence (TI), % of patients” value (del(5q) MDS patients; lower risk MDS patients with del(5q)) is listed as 67% and the “duration of response, median” value (del(5q) MDS patients; patients with del5q MDS) is listed as 2.5 years.
For `C=C1[C@@H](O)[C@@H]2O[C@]3(CC[C@H](/C=C/[C@@H](C)[C@@H]4CC(C)=C[C@@]5(O[C@H](C[C@@](C)(O)C(=O)O)CC[C@H]5O)O4)O3)CC[C@H]2O[C@@H]1[C@@H](O)C[C@H](C)[C@H]1O[C@@]2(CCCCO2)CC[C@H]1C` [Okadaic acid, 9,10-Deepithio-9,10-didehydroacanthifolicin], the pIC50 (protein phosphatase 1) is given as 7.82 to 8.52, the pIC50 (protein phosphatase 2A) is given as 9.00 to 10.00 and the “Selectivity over PP2B, PP2C and a range of other phosphatases (in words)” value (protein phosphatase 2A) is given as “highly selective”.
For `C[C@@]12C(=O)OC(=O)[C@]1(C)[C@H]1CC[C@@H]2O1` [cantharidin], the “PP2A inhibition (in words)” value (protein phosphatase 2A) is listed as “potent and selective inhibitor of PP2A”.
